Values of other authors as cited in US5618928A, “Triazenyl-substituted phenyl pyrimidines and their use in therapy” (British Technology Group Limited, priority 1992, dated 1997).

Legend:
[1] = tested on: dihydrofolate reductase (DHFR); settings: in words, background; cited from earlier work
[2] = in combination with sulphamethoxazole, AIDS patients; cited from earlier work

COc1cc(NCc2ccc3nc(N)nc(N)c3c2C)cc(OC)c1OC [trimetrexate]
potency [1]: high potency
selectivity [1]: poor selectivity

COc1cc(Cc2cnc(N)nc2N)cc(OC)c1OC [trimethoprim]
adverse reactions [2]: high percentage of adverse reactions in AIDS patients
